# From US20260165953A1, “THE HIPPO PATHWAY AS A PHARMACOLOGIC TARGET FOR TREATING REFRACTIVE DISORDERS” (Centre for Eye and Vision Research Limited, priority 2022, published 2026)
# What was measured:
# [1] = system: form-deprivation myopia (FDM) in chicks; assay: Unilateral form-deprivation myopia (FDM) in chicks, four intravitreal injections every alternate day, 7-day diffuser lens treatment; assay type: in vivo, White Leghorn chicks (Gallus gallus); conditions: for axial length, mean interocular difference ± SD / refractive error (myopic progression), mean interocular difference ± SD / increase in choroidal thickness compared to the vehicle group / choroidal thickness, mean interocular difference ± SD: after 7-day treatment; for axial length, mean interocular difference ± SD: vehicle 0.75±0.19 mm; for refractive error (myopic progression), mean interocular difference ± SD: vehicle −10.0±2.56 D; for choroidal thickness, mean interocular difference ± SD: vehicle 43.02±8.87 μm
# Procedure: XMU-MP-1, known for its reversible and selective inhibition of MST1/2 (upstream to YAP/TAZ), leading to a significant increase in the activity of the Hippo pathway effector YAP, undergoes testing in a dose-dependent manner for its impact on form-deprivation myopia (FDM) in chicks.
# White Leghorn chicks (Gallus gallus) from specific pathogen-free eggs (SPF, Jinan, China) are raised in standard cages with adequate food and water, maintaining a temperature of 25° C. and a 12 h:12 h light/dark cycle. The experimental period spans from postnatal 7 days (PN 7) to 14 days (PN 14). A unilateral FDM model is established using a published protocol, involving four intravitreal injections performed every alternate day. Following the first injection, diffuser lenses are attached to the right eye, with lenses covering only the XMU-MP-1 injected eye (unilateral FDM). XMU-MP- 1, dissolved in 10% DMSO with 90% Corn oil, is injected monocularly using a 0.3 mm (30 G)×8 mm needle into the vitreous through the skin, sclera, choroid, and retina close to the margin of the upper orbit. Contralateral eyes receive no lens treatment. Four concentrations of XMU-MP-1 (0.02, 0.2, 2, and 20 mmol/L) are selected for evaluation.
# Animals are randomly assigned to five groups, encompassing the FDM with vehicle treatment group (vehicle group, 10% DMSO+90% Corn oil, n=14), FDM with 0.02 mmol/L XMU-MP-1 treatment group (XMU-MP-1, 0.02 mmol/L group, n=5), FDM with 0.2 mmol/L XMU-MP-1 treatment group (XMU-MP-1, 0.2 mmol/L group, n=5), FDM with 2 mmol/L XMU-MP-1 treatment group (XMU-MP-1, 2 mmol/L group, n=13), and FDM with 20 mmol/L XMU-MP-1 treatment group (XMU-MP-1, 20 mmol/L group, n=14).
# Refractive errors are assessed using a streak retinoscope, and ocular parameters are measured with a high-frequency A-scan ultrasound system equipped with a 30 MHz transducer (Panametrics, Inc., Waltham, MA) before and after treatment. The spherical equivalent (S.E.) is derived from the refractive status (S.E.=spherical power+½ cylindrical power), and axial length is defined from the front of the cornea to the back of the vitreous chamber.
# For statistical analysis, after the 7-day lens treatment period, interocular differences (the difference between the diffuser-treated eyes and the contralateral fellow eyes) are calculated for six ocular parameters (refractive error, anterior chamber depth, lens thickness, vitreous chamber depth (FIG. 4B), axial length, and choroidal thickness). Mean interocular differences±SD are presented, and the significance of the dose-effect is analyzed using ANOVA. Post hoc testing (Dunnett's method) is employed where appropriate, with significance levels denoted as follows: ns, not significant; *, P<0.05; **, P<0.01; ****, P<0.0001.
# [2] = Signs of toxicity in animal models; assay type: in vivo
# [3] = 2 mmol/L XMU-MP-1 intravitreal, n=13, P<0.001
# [4] = 20 mmol/L XMU-MP-1 intravitreal, n=14, P<0.0001
smiles,measurement,setting,value
CN1C(=O)c2sccc2N(C)c2nc(Nc3ccc(S(N)(=O)=O)cc3)ncc21 [XMU-MP-1],"axial length, mean interocular difference ± SD","[1]; 0.02 mmol/L XMU-MP-1 intravitreal, n=5",0.73±0.13 mm
same,"axial length, mean interocular difference ± SD","[1]; 0.2 mmol/L XMU-MP-1 intravitreal, n=5, P<0.001",0.41±0.24 mm
same,"refractive error (myopic progression), mean interocular difference ± SD","[1]; 0.2 mmol/L XMU-MP-1 intravitreal, n=5, P<0.01",−6.05±2.97 D
same,"inhibition of myopia, based on refractive error and axial length data",[1]; 0.2 mmol/L group,about 40%
same,increase in choroidal thickness compared to the vehicle group,[1]; 2 mmol/L XMU-MP-1 intravitreal,about 50%
same,"axial length, mean interocular difference ± SD",[1]; [3],0.36±0.20 mm
same,"choroidal thickness, mean interocular difference ± SD",[1]; [3],22.07±15.13 μm
same,"refractive error (myopic progression), mean interocular difference ± SD","[1]; 2 mmol/L XMU-MP-1 intravitreal, n=13, P<0.0001",−4.69±2.75 D
same,"inhibition of myopia, based on refractive error and axial length data",[1]; 2 mmol/L group,about 53%
same,increase in choroidal thickness compared to the vehicle group,[1]; 20 mmol/L XMU-MP-1 intravitreal,~70%
same,"axial length, mean interocular difference ± SD",[1]; [4],0.27±0.22 mm
same,"choroidal thickness, mean interocular difference ± SD",[1]; [4],12.83±17.96 μm
same,"refractive error (myopic progression), mean interocular difference ± SD",[1]; [4],−3.51±2.89 D
same,suppression of myopia development,[1]; highest dose tested (200 nmol),about 65%
same,inhibition of lens-induced myopia,[1]; intravitreal injection,robustly inhibits lens-induced myopia
same,"suppression of myopia progression, dose dependence","[1]; intravitreal injection, 0.02-20 mmol/L, ANOVA significant dose-response effect (p<0.0001)",can suppress myopia progression through intravitreal injection in a dose-dependent manner
same,signs of toxicity,[2],no discernible signs of toxicity
